The results in this text go back to patent US10888549B2, “Pharmaceutical agents targeting cancer stem cells” (THE JOHNS HOPKINS UNIVERSITY, priority 2016, dated 2021).

One series relates to let-7. Briefly: let-7 expression by Q-RT-PCR. The class given is cell-based, human. Particulars: parental or spheroid bladder cancer cells. As for the experimental part: Total RNA from cell lines was isolated using the RNeasy Plus Mini kit (Qiagen, Valencia, USA) according to the manufacturer's protocol. Total RNA extraction from bladder tissue was performed with the QIAzol Lysis Reagent (Qiagen) followed by phenol extraction and ethanol precipitation. Total RNA was eluted in DEPC treated water and stored at -80° C. Total RNA extraction from urine was performed using the […] Isolation Kit (Ambion, Austin, USA). These total RNA were converted to cDNA using the SuperScript III First-Strand Synthesis System (Life technologies, Carlsbad, USA), which was then used as a template for Q-RT-PCR. Q-RT-PCR was performed using the Fast SYBR Green Master Mix (Thermo Fisher Scientific, Waltham, USA) on a 7900HT Fast Real-Time PCR System (Life technologies) in triplicate. Micro RNA (miRNA) extraction was performed using the […] Isolation Kit, and was reverse transcribed using TaqMan reverse transcription kit (Applied Biosystems, Foster City, USA) and miRNA-specific RT primers provided with TaqMan microRNA assays (Applied Biosystems). Q-RT-PCR for miRNAs was performed using the TaqMan Universal PCR Master Mix according to the manufacturer's protocol. SDS software (Applied Biosystems) was used to determine cycle threshold (Ct) values. Expression level was quantified relative to β-actin for mRNA and RNU6B for miRNA using the 2-ΔΔCt method (12).

The subject of the next series is MIRLET7BHG promoter. Briefly: Bisulfite sequencing of let-7 host gene promoter. The class given is cell-based, human. The settings on record: bladder cancer cells. As for the experimental part: Cell pellets were digested with 1% sodium dodecyl sulfate and 50 μg/mL proteinase K (Roche, Nutley, USA) at 48° C. overnight. Isolation of genomic DNA from cell lines was performed with the phenol-chloroform extraction protocol followed by ethanol precipitation. Bisulfite treatment was conducted using an EpiTect Bisulfite Kit (QIAGEN, Valencia, USA), and was subsequently amplified via PCR using primers as shown in the following table. PCR products were purified using the QIAquick Gel Extraction kit (Qiagen), and sequenced by Genewiz DNA sequencing service (Genewiz, South Plainfield, USA). The data were analyzed using the Sequence Scanner v1.0 software (Life technologies). A methylation frequency of ≥50% of total CpG sites within the amplified region was considered “methylation-positive”. For demethylation, cells (1×10^6/T-75 flask) were treated with […] of the demethylating agent 5-Aza-dC (Sigma) dissolved in 50% acetic acid or were mock-treated with phosphate buffered saline (PBS) including the same amount of acetic acid every 24 hours for 5 days. When combined with the histone deacetylase inhibitor TSA (Sigma), 300 nmol/L TSA was added to the medium for the final 24 hours.

A further series deals with SOX2. Briefly: SOX2 expression by western blotting / flow cytometry. The class given is cell-based, human. As for the experimental part: (§1) Whole cell lysates were extracted using RIPA buffer (Thermo Scientific) supplemented with 10 μL/mL Halt™ Protease Inhibitor Cocktail Kit (Life Technologies) and 30 μL/mL Halt™ Phosphatase Inhibitor Cocktail Kit (Life Technologies). The protein concentrations were determined using a Pierce™ BCA Protein Assay Kit (Life Technologies), and the protein were separated on NuPAGE® 4-12% Bis-Tris Gel (Life Technologies) according to the manufacturer's protocol. COX2 (D5H5), NANOG (D73G4), OCT4 (D7O5Z), CD133 (A3G6K), Snail (C15D3), ZEB1 (D80D3), Vimentin (D21H3), CDH2 (D4R1H), CDH1 (24E10), p-EGFR (D7A5), EGFR (D38B1), p-AKT (D9E), AKT (cat #, 9272), p-ERK (D13.14.4E), ERK (137F5), p-YAP1 (D9W2I), p-Src (cat #, 2101), Src (36D10), DNMT1 (D63A6), DNMT3A (D23G1), and DNMT3B (D7O7O) antibodies were obtained from Cell Signaling Technology (Danvers, Mass., USA), except for SOX2 (EPR3131; Abcam, Cambridge, USA), YAP1 (ab52771; Abcam), CD24 (cat #, AF5247-SP; R&D Systems, Minneapolis USA) and β-actin (A2228; Sigma-Aldrich). Secondary horseradish peroxidase (HRP)-conjugated antibodies were obtained from Cell Signaling Technology, and chemiluminescent detection of HRP-labeled antibodies was performed using Amersham ECL Prime Western Blotting Detection Reagent (GE Healthcare, Piscataway, USA). As loading control, β-actin was used.
For extracellular staining, cells (1×10^6/100 μL stain buffer) were incubated with PE-Vio770-conjugated anti-human CD133 (293C3; Miltenyi Biotec, Auburn, USA) or PE-conjugated anti-human CD24 antibody (cat #, 560991; BD Biosciences) for 30 min at 4° C. in dark. PE-Vio770-conjugated Isotype (cat #, 130-098-563; Miltenyi Biotec) and PE-conjugated IgG2a, κ Isotype (cat #, 555574; BD Biosciences) were used as control for CD133 and CD24 staining, respectively. Staining for intracellular SOX2 was carried out using the BD Cytofix/Cytoperm Fixation/Permeabilization Kit (BD Biosciences) according to manufacturer's protocol. The cells were incubated with Alexa Fluor 647-conjugated anti-SOX2 antibody (cat #, 560302; BD Biosciences) for 40 min at 4° C. in dark. Alexa Fluor 647-conjugated anti-IgG2a, κ Isotype (cat #, 558053; BD Biosciences) was used as control. Data were acquired on a BD FACSCalibur flow cytometer (BD Biosciences) using BD CellQuest Pro software (BD Biosciences) and analyzed with FlowJo software v10.1 (Tree Star, Ashland, USA).
(In western blotting, separated proteins are transferred to a membrane and probed.)

For a further series, the system named is urothelial CSCs. Briefly: Sphere formation assay (CSC properties). The class given is cell-based, human. The settings on record: for sphere formation / sphere-forming ability: agent alone, bladder cancer cells. The method, then: Sphere formation was induced by culturing cells (2×10^4/well) in DMEM/Ham's F12 50/50 Mix (Mediatech) supplemented with B-27 (Life Technologies), 20 ng/mL FGF-basic (Peprotech), 20 ng/mL EGF (Peprotech). Cell culture was performed in ultra-low attachment 6 well plates (Corning, Lowell, USA) for 10 days. The medium was replaced every other day. Sphere formation was evaluated using the inverted phase-contrast microscope, and single sphere with a diameter larger than 100 μm was counted using NIS-Elements Microscope Imaging Software. To redifferentiate spheres, spheres were plated in standard growth medium with 10% FBS in dishes supporting cell attachment, and incubated for 7 days. For self-renewal assay, primary spheres were collected by gentle centrifugation (5 min at 400×g), dissociated with Stempro Accutase Cell Dissociation Reagent (Life Technologies), and mechanically disrupted with a pipette. The cell suspension was sieved through 40 μm cell strainer cap filter to achieve a single-cell suspension, and then equal numbers of alive cells were plated in ultralow attachment plates to generate the second spheres. Again, spheres were counted on day 14 and digested to generate the third Spheres. All the experiments were performed in triplicate and repeated at least three times.

Another series deals with panel of miRNAs. Briefly: Expression of a panel of miRNAs in BFTC 905 cells. It is filed as cell-based, human. The method, then: Total RNA from cell lines was isolated using the RNeasy Plus Mini kit (Qiagen, Valencia, USA) according to the manufacturer's protocol. Total RNA extraction from bladder tissue was performed with the QIAzol Lysis Reagent (Qiagen) followed by phenol extraction and ethanol precipitation. Total RNA was eluted in DEPC treated water and stored at −80° C. Total RNA extraction from urine was performed using the MirVana miRNA Isolation Kit (Ambion, Austin, USA). These total RNA were converted to cDNA using the SuperScript III First-Strand Synthesis System (Life technologies, Carlsbad, USA), which was then used as a template for Q-RT-PCR. Q-RT-PCR was performed using the Fast SYBR Green Master Mix (Thermo Fisher Scientific, Waltham, USA) on a 7900HT Fast Real-Time PCR System (Life technologies) in triplicate. Micro RNA (miRNA) extraction was performed using the MirVana miRNA Isolation Kit, and was reverse transcribed using TaqMan reverse transcription kit (Applied Biosystems, Foster City, USA) and miRNA-specific RT primers provided with TaqMan microRNA assays (Applied Biosystems). Q-RT-PCR for miRNAs was performed using the TaqMan Universal PCR Master Mix according to the manufacturer's protocol. SDS software (Applied Biosystems) was used to determine cycle threshold (Ct) values. Expression level was quantified relative to β-actin for mRNA and RNU6B for miRNA using the 2-ΔΔCt method (12).

In another series the test system is DNMT 1 and 3A. Description: Western blotting of DNMTs. It is filed as cell-based, human. The method, then: as §1
A further series relates to YAP1. Description: YAP1 expression by western blotting. The class given is cell-based, human. As for the experimental part: as §1
The next series has as its system COX2. Description: COX2 expression by western blotting. It is filed as cell-based, human. The settings on record: agent alone; bladder cancer cells. As for the experimental part: Whole cell lysates were extracted using RIPA buffer (Thermo Scientific) supplemented with 10 μL/mL Halt™ Protease Inhibitor Cocktail Kit (Life Technologies) and 30 μL/mL Halt™ Phosphatase Inhibitor Cocktail Kit (Life Technologies). […] Secondary horseradish peroxidase (HRP)-conjugated antibodies were obtained from Cell Signaling Technology, and chemiluminescent detection of HRP-labeled antibodies was performed using Amersham ECL Prime Western Blotting Detection Reagent (GE Healthcare, Piscataway, USA). As loading control, β-actin was used.

Series [1] is described as follows: Body weight of treated mice. Particulars: mouse, in vivo. The class given is in vivo. The method, then:
For celecoxib and/or VP treatment, celecoxib (5 mg/kg) was administered via intraperitoneal (i.p.) injection once a day (17), and VP (50 mg/kg) was administered via i.p. every other day (18). EP4 antagonist ONO-AE3-208 (10 mg/kg) was administered via i.p. once a day (19). Control was applied with same volume (100 μL per injection) of 10% dimethyl sulphoxide in […] (Sigma-Aldrich). For GEM and CDDP (GC) treatment (i.p.), CDDP (6 mg/kg) was only applied after the first GEM (60 mg/kg) treatment on day 2, followed by three consecutive treatments of GEM on day 5, 8 and 11 (17). The next cycle was started on day 18, and the treatment was continued until tumor reached 2 cm in diameter. For erlotinib treatment, the mice were treated once a day, 6 days per week, by oral gavage with erlotinib (100 mg/kg) or control (PBS containing 0.5% methyl cellulose (Sigma-Aldrich) and 0.1% TWEEN 80) (20). Tumor size was measured at least every three days. […] To establish xenograft model with acquired resistance to erlotinib, erlotinib sensitive 5637 cells were injected subcutaneously into the both flanks of 4-5 week-old NSG mice, and the tumors were consecutively passaged from NSG mice treated with erlotinib and celecoxib until the development of refractory tumors. […]

The mark [2] stands for this setting: agent alone, bladder cancer cells.
Where [3] appears, read: PGE2 added to celecoxib-treated cells.

Each structure is given as a SMILES string.

On to `Nc1ncn([C@H]2C[C@H](O)[C@@H](CO)O2)c(=O)n1` [5-Aza-dC, 5-Aza-2′-deoxycytidine], for which, in the series on let-7, the let-7 expression entry is on record as “restoration”. Besides, in the series on MIRLET7BHG promoter, the “promoter methylation of the let-7 host gene” value is listed as “demethylated”.

For the molecule `CC(C(=O)Nc1cc(C#N)ccc1CCCC(=O)O)c1ccc(F)c2ccccc12` (centres unmarked) [EP4-specific antagonist, ONO-AE3-208], in the series with SOX2 (setting [2]), the SOX2 expression result is “dramatic reduction”. In addition, the “sphere formation / sphere-forming ability” value in the series with urothelial CSCs is “dramatic reduction”.

For the molecule `CCCCC[C@H](O)/C=C/[C@H]1[C@H](O)CC(=O)[C@@H]1C/C=C\CCCC(=O)O` [PGE2, Prostaglandin E2], the SOX2 expression entry in the series on SOX2 (setting [3]) is “restored”. Further, the sphere-forming ability result with urothelial CSCs (setting [3]) is reported as “restored”. Also, the let-7 expression entry in the series on let-7 is recorded as “reduced”. In addition, the “promoter methylation of the let-7 host gene” value with MIRLET7BHG promoter is reported as “Promoter methylation of the let-7 host gene was observed”. Also, in the series with panel of miRNAs, the “expression of several miRNAs” value is “reduced”. In addition, the “DNMT 1 and 3A expression” value in the series on DNMT 1 and 3A is “upregulated”.

In the case of `CC(C)(C)n1nc(-c2ccc(Cl)cc2)c2c(N)ncnc21` [Src inhibitor, PP2], the YAP1 expression entry with YAP1 (Src inhibitor added to COX2 inhibitor-treated cells) is reported as “downregulated”.

With `C=Cc1c(C)c2cc3nc(cc4[nH]c(cc5nc(cc1[nH]2)C(C)=C5CCC(=O)O)c(CCC(=O)OC)c4C)[C@@]1(C)C3=CC=C(C(=O)OC)[C@H]1C(=O)OC` [VP, 3-[(23S,24R)-14-ethenyl-5-(3-methoxy-3-oxopropyl)-22,23-bis(methoxycarbonyl)-4,10,15,24-tetramethyl-25,26,27,28-tetraazahexacyclo[16.6.1.1^3,6.1^8,11.1^13,16.0^19,24]octacosa-1,3,5,7,9,11(27),12,14,16,18(25),19,21-dodecaen-9-yl]propanoic acid], the SOX2 expression entry in the series with SOX2 (setting [2]) is on record as “reduced”. Moreover, the COX2 expression result with COX2 is given as “induced”. Moreover, in [1], the “body weight loss of mice” value is given as “did not observe body weight loss”.

With `N.N.[Cl][Pt][Cl]` [cisplatin, Cisplatin], the SOX2 expression entry in the series with SOX2 (setting [2]) was “overexpression”. In the series on COX2, the COX2 expression result is on record as “overexpression”. Moreover, the YAP1 expression entry with YAP1 (setting [2]) is recorded as “overexpression”. In addition, the “sphere formation / sphere-forming ability” value with urothelial CSCs is recorded as “increased”.

On to `CCc1cccc2c3c([nH]c12)C(CC)(CC(=O)O)OCC3` (centres unmarked) [etodolac, Etodolac], for which the SOX2 expression result in the series with SOX2 (setting [2]) is “dramatic reduction”. For the same molecule, the “sphere formation / sphere-forming ability” value with urothelial CSCs is “dramatic reduction”.
